Here are results for 25 compounds from patent publication US9006450B2 (Boehringer Ingelheim International GmbH, priority 2010, dated 2015).

As usually defined, the IC50 is the concentration needed to halve the response being measured.

T1 sequence (O00763 129-2458 limits assumed): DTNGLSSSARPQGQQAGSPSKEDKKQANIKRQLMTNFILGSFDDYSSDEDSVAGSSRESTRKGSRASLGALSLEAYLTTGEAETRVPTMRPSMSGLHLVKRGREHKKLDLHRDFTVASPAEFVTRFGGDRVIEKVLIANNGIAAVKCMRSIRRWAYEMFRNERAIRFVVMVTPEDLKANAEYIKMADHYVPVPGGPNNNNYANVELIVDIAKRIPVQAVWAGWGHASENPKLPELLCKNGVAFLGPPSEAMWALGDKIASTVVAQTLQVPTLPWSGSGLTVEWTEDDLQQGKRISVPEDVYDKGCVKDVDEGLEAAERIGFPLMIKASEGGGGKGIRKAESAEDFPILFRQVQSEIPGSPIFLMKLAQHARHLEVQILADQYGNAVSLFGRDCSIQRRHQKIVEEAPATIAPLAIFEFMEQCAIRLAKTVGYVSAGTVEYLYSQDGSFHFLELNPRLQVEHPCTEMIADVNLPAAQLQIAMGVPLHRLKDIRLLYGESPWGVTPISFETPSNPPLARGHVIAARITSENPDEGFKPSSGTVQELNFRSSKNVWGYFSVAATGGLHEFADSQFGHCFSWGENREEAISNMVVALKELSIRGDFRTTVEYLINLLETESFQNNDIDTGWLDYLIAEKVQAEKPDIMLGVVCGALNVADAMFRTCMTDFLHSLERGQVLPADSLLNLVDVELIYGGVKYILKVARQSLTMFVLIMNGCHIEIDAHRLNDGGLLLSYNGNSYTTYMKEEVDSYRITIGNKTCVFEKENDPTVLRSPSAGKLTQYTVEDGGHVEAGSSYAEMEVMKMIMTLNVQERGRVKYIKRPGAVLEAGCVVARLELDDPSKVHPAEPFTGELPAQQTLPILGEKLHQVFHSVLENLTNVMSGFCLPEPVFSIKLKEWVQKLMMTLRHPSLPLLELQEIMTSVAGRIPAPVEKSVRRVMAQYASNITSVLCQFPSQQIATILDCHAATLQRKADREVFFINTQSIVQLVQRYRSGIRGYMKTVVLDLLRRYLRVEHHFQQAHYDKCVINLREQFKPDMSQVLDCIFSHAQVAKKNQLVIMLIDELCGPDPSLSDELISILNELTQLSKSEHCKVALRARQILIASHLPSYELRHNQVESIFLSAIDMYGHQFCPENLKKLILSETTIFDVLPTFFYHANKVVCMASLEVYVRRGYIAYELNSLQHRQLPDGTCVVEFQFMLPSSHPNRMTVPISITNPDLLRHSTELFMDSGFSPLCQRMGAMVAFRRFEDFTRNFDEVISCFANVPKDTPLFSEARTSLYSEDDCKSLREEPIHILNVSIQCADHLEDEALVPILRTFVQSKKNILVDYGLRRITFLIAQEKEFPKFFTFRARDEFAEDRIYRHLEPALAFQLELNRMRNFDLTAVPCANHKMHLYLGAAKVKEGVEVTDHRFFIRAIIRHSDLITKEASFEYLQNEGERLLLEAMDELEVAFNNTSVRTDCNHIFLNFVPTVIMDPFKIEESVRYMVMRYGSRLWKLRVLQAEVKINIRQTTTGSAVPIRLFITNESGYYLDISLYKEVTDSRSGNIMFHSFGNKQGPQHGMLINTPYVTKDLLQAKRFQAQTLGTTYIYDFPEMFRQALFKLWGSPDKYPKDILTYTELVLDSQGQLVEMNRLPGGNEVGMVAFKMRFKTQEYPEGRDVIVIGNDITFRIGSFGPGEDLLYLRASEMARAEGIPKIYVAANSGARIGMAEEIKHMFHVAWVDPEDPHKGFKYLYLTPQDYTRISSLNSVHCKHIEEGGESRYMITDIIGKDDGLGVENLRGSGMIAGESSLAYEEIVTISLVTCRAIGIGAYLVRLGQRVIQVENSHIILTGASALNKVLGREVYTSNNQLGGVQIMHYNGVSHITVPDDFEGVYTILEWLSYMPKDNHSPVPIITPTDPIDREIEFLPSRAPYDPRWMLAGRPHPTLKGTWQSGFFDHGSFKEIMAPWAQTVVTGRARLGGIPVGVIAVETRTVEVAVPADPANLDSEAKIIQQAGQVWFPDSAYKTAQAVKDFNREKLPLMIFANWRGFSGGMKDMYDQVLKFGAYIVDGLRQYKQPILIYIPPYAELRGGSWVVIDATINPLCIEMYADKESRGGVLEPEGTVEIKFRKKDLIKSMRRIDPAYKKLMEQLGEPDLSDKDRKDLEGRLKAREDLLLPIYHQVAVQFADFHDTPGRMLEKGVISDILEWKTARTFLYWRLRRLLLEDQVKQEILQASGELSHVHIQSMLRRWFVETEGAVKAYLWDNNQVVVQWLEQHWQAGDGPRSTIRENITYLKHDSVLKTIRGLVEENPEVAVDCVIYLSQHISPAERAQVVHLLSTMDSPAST

The assay has as its target T1, human ACC2 (Homo sapiens, UniProt O00763).
T1 construct: made in house; host or cells: insect cells (baculoviral expression system)
Nature of the assay: ACC2 assay, spectrophotometric 384 well assay (NADH-linked, coupled lactate dehydrogenase/pyruvate kinase). Format: biochemical. As to conditions: ACC2 assay, hACC2 construct lacking 128 N-terminal amino acids, 25° C., 340 nm; read-out: IC50. On the procedure:
Spectrophotometric 384 Well Assay
Malonyl CoA formation by acetyl CoA carboxylases is stoichometrically linked to the consumption of ATP. ACC2 activity is measured in a NADH-linked kinetic method measuring ADP generated during the ACC reaction using a coupled lactate dehydrogenase/pyruvate kinase reaction.
For biological testing, a human ACC2 construct which lacks the 128 amino acids at the N-terminus for increased solubility (nt 385-6966 in Genbank entry AJ575592) is cloned. The protein is then expressed in insect cells using a baculoviral expression system. Protein purification is performed by anion exchange.
All compounds are dissolved in dimethyl sulfoxide (DMSO) to a concentration of 10 mM.
Assay reactions are then carried out in 384-well plates, with hACC2 in an appropriate dilution and at final assay concentrations (f.c.) of 100 mM Tris (pH 7.5), 10 mM trisodium citrate, 25 mM KHCO3, 10 mM MgCl2, 0.5 mg/mL BSA, 3.75 mM reduced L-glutathione, 15 U/mL lactate dehydrogenase, 0.5 mM phosphoenolpyruvate, 15 U/mL pyruvate kinase, compounds at different concentrations at final DMSO concentrations of 1%.
The enzymatic reaction is then started by addition of a mixture of NADH, acetyl Coenzyme A (both 200 μM f.c.) and ATP (500 uM f.c.). The decrease of the optical density (slope S) is then determined at 25° C. at a wavelength of 340 nm over 15 minutes in a spectrophotometric reader.
Each assay microtiter plate contains wells with vehicle instead of compound as controls for the non-inhibited enzyme (100% CTL; ‘HIGH’) and wells without acetyl-CoA as controls for non-specific NADH degradation (0% CTL; ‘LOW’).
The slope S is used for calculation of % CTL=(S(compound)−S('LOW'))/(S('HIGH')−S('LOW'))*100. Compounds will give values between 100% CTL (no inhibition) and 0% CTL (complete inhibition).
For IC50 value determination, the sample slope in the presence of the test compound after subtraction of the low controls (S(compound)−S('LOW')) are used.
An IC50 value is derived from the compound slopes at different dosages after subtraction of the low controls (S(compound)−S('LOW')) by non-linear regression curve fitting (equation y=(A+((B−A)/(1+((C/x)^D))))).
`CNc1cc(N2CCC(c3ccc([C@H](C)NC(C)=O)cc3)CC2)ncn1` [Example 11.85]: the IC50 worked out at 13.9 µM.

Consider `CC(=O)N[C@@H](C)c1ccc(C2CCN(c3ncc(-c4ccc(C)cc4)cn3)CC2)cc1` [Example 10.44], for which the IC50 is 0.1 µM.

Turning to `CC(=O)N[C@@H](C)c1ccc(C2CCN(c3ncc(C(=O)N4CCc5cnccc54)cn3)CC2)cc1` [Example 18.40], the IC50 was found to be 6.6 µM.

For the compound `CC(=O)N[C@@H](C)c1ccc(C2CCN(c3cnc(-c4ccccn4)s3)CC2)cc1` [Example 34.1, (S)—N-(1-(4-(1-(2-(Pyridin-2-yl)thiazol-5-yl)piperidin-4-yl)phenyl)ethyl)acetamide], the IC50 is 0.42 µM.

Take `CC(=O)N[C@@H](C)c1ccc(C2CCN(c3ccc(OCC4CC4C)cc3)CC2)cc1` (stereo partly drawn) [Example 27.1, N-((1S)-1-(4-(1-(4-((2-methylcyclopropyl)methoxy)phenyl)-piperidin-4-yl)phenyl)-ethyl)acetamide]: the IC50 is 0.15 µM.

In the case of `CC(=O)N[C@@H](C)c1ccc(C2CCN(c3cc(OCC4CCCC4)ncn3)CC2)cc1` [Example 11.10], the IC50 is 0.27 µM.

On to `CC(=O)N[C@@H](C)c1ccc(C2CCN(c3ncc(C(=O)N[C@H]4C[C@H](N)C4)cn3)CC2)cc1` [Example 18.74], for which the IC50 was 24.5 µM.

For `C/C=C/CCOc1ccc(N2CCC(c3ccc([C@H](C)NC(C)=O)cc3)CC2)cc1` [Example 8.64], the IC50 worked out at 0.12 µM.

On to `C[C@H](NC(=O)N(C)C)c1ccc(C2CCN(c3ccnc(Oc4ccccc4)c3)CC2)cc1` [Example 1.138], for which the IC50 was determined as 0.16 µM.

`CC(=O)N[C@@H](C)c1ccc(C2CCN(c3cc(OC4CCC4)ncn3)CC2)cc1` [Example 11.109]: the IC50 amounted to 0.08 µM.

For the compound `CC(=O)N[C@@H](C)c1ccc(C2CCN(c3ccc(OC4CCOCC4)cc3)CC2)cc1` [Example 7.1, (S)—N-[1-(4-{1-[4-(Tetrahydro-2H-pyran-4-yloxy)-phenyl]-piperidin-4-yl}-phenyl)-ethyl]-acetamide], the IC50 stood at 0.58 µM.

Consider `CC(=O)N[C@@H](C)c1ccc(C2CCN(c3ccnc(NCc4ccoc4)n3)CC2)cc1` [Example 11.100], for which the IC50 worked out at 5.2 µM.

Consider `COc1ccc(-c2cnc(N3CCC(c4ccc([C@H](C)NC(C)=O)cc4)CC3)nc2)c(C(F)(F)F)c1` [Example 10.36], for which the IC50 worked out at 0.21 µM.

In the case of `COc1cc(C)c(-c2cnc(N3CCC(c4ccc([C@H](C)NC(C)=O)cc4)CC3)nc2)cc1C` [Example 10.127], the IC50 amounted to 1.6 µM.

As for `CC(=O)N[C@@H](C)c1ccc(C2CCN(c3ncc(C(=O)NCC(O)C(F)(F)F)cn3)CC2)cc1` (stereo partly shown) [Example 18.63], the half-maximal inhibitory concentration (IC50) turned out to be 23.1 µM.

As to `CC(=O)N[C@@H](C)c1ccc(C2CCN(c3ncc(-c4ccccc4F)cn3)CC2)cc1` [Example 10.13], the IC50 was found to be 0.09 µM.

With `CC(=O)N[C@@H](C)c1ccc(C2CCN(c3ccc(C4CC4)nc3)CC2)cc1` [Example 1.175], the IC50 is 1.1 µM.

Take `CC(=O)N[C@@H](C)c1ccc(C2CCN(c3ncc(C(=O)N4CCN(C(C)=O)CC4)cn3)CC2)cc1` [Example 18.53]: the IC50 came to 15.1 µM.

Turning to `CCC(=O)N[C@@H](C)c1ccc(C2CCN(c3ccc(OCC4CC4)cc3F)CC2)cc1` [Example 1.148], the IC50 is 0.7 µM.

Consider `CC(C)COc1ccc(N2CCC(c3ccc([C@H](C)NC(=O)C4CC4)cc3)CC2)cc1` [Example 1.114], for which the IC50 was 0.13 µM.

On to `CCC(C)Oc1ccc(N2CCC(c3ccc([C@H](C)NC(C)=O)cc3)CC2)cc1OC` (stereo partly shown) [Example 8.54], for which the IC50 is 1.5 µM.

On to `CC(=O)N[C@@H](C)c1ccc(C2CCN(c3ncc(C(=O)N(C)Cc4ccccc4)cn3)CC2)cc1` [Example 18.93], for which the 50% inhibitory concentration (IC50) was found to be 0.8 µM.

Take `COCCNC(=O)c1cnc(N2CCC(c3ccc([C@H](C)NC(C)=O)cc3)CC2)nc1` [Example 18.55]: the IC50 amounted to 8.8 µM.

In the case of `CCCOc1ccc(N2CCC(c3ccc(C(CC)NC(C)=O)cc3)CC2)c(OC)c1` (stereo not shown) [Example 15.20], the IC50 is 3.9 µM.

For `C[C@H](NC(=O)C1CC1)c1ccc(C2CCN(c3ccnc(Oc4ccccc4)c3)CC2)cc1` [Example 3.14], the IC50 stood at 0.42 µM.
